Reference: the NIST ThermoML archive (doi:10.1016/j.jct.2013.04.017)
Numbers after ± are expanded uncertainties.

Key:
[1] = mn = molality of the nth substance listed, in mol/kg; conditions: 313.15 K; 101 kPa; Liquid; fixed-path interferometer; m2 = 0
[2] = 313.15 K; 101 kPa; Liquid; Sing-around technique in a fixed-path interferometer

| speed of sound [1] | speed of sound [2] | Compound |
| --- | --- | --- |
| 1528.9 ± 1.1 m/s |  | O [water] + O=C(O)CC(O)(CC(=O)O)C(=O)O |
|  | 1528.9 ± 1.1 m/s | O [water] |
